Reference: US5516797A, “Immunosuppressive compounds” (Vertex Pharmaceuticals, Incorporated, priority 1994, dated 1996)

Key:
[1] = test system: human peripheral blood lymphocytes; test: Human PBL + OKT3 proliferation (Table 5, assay 1); format: cell-based; conditions: Lymphocyte, [3H]TdR incorporation, estimated
Procedure: 1) Assay similar to Yoshimura, N. et al., Transplantation 47:356-359 (1989). Assay uses fresh human peripheral blood lymphocytes isolated by Ficoll-Hypaque density centrifugation, stimulated bythe OKT3 antibody (anti-CD3) which stimulates via interaction with CD3. Stimulation is measured by incorporation of radioactive thymidine [(^3 H)TdR] into proliferating cells, with an uninhibited control signal of 48,000-75,000 cpm. IC50 values are estimated from inhibitions of proliferation observed at various drug concentrations.

T-cell hybridoma = test: Apoptosis: activation-induced (anti-CD3) cell death in T-cell hybridoma (Table 5, assay 3); format: cell-based; conditions: for Apoptosis (activation-induced cell death): at 1 μg/ml
Excerpt: 3) Assay according to Shi, Y. et al., Nature 339:625-626 (1989). The assay uses a T-cell hybridoma similar to that described. The assay measures activation-induced (anti-CD3) cell death (evaluated by counting viable cells after staining as described) in a T-cell hybridoma that mimics the effect known to occur in immature thymocytes.

CTLLs = conditions: cited from earlier work
CTLL cells = test: CTLL Proliferation + IL-2 (Table 5, assay 4); format: cell-based, murine; conditions: for IC50: Mus musculus, CTLL, exogenous IL-2, [3H]TdR incorporation
Procedure: 4) Assay according to DuMont, F. et al., J. Immunol. 144:251-258 (1990). The assay measures the stimulation of CTLL cells in response to IL-2. Proliferation is measured by incorpoation of (^3 H)TdR. […] In this assay, exogenous IL-2 is provided to overcome this block.
Fresh peripheral blood lymphocytes (PBLs) from LeukoPak cells or whole blood from random normal blood donors (tested HIV-negative and hepatitis negative) are isolated and separated by density centrifugation over Histopaque 1077 (Sigma Chemical Co., St. Louis, Mo.). The murine CTLL cytotoxic T cell line and the human Jurkat T cell line are from ATCC (CTLL-2 ATCC TIB214, JURKAT CLONE E6-1 ATCC TIBl52). The human allogeneic B cell lines used for activation of the fresh PBLs are EBV-transformed lymphocytes from normal healthy adult donors with two completely different HLAhaplotypes. All cell lines were routinely tested for the presence of Mycolasma contamination using the GibcoMycotect test kit and are Mycolasma-free. Culture medium consksts of RPMI 1640 (Gibco, Grand Island, N.Y.) containing penicillin (50 U/ml) and streptomycin (50 μg/ml), L-glutamine 2 mM, 2 mercaptoethanol (5×10^-5), 10% heat-inactivated FCS and 10 mM HEPES.

[2] = test system: T-cell clone stimulated with antibody to TCR and CD2; test: T-Cell Hybridoma + TCR/CD2 proliferation (Table 5, assay 2); format: cell-based; conditions: [3H]TdR incorporation, estimated
Procedure: 2) Assay similar to above, but using T-cell clone stimulated with antibody to the T-cell receptor (TCR) and antibody to CD2. Stimulation is measured by incorporation of radioactive thymidine [(^3 H)TdR] into proliferating cells, with an uninhibited control signal of 23,000 cpm. IC50 values are estimated from inhibitions of proliferation observed at various drug concentrations.

cytotoxic T-cell = conditions: in vitro; cited from earlier work
mixed lymphocyte culture = conditions: in vitro; cited from earlier work
binding protein (FKBP) = conditions: cited from earlier work
IL-2 production = conditions: in vitro; cited from earlier work
PPIase = conditions: cited from earlier work

| Structure (SMILES) | IC50 [1] | activity in activation-induced cell death assay (in words) (T-cell hybridoma) | Apoptosis (activation-induced cell death) (T-cell hybridoma) | IL-2 dependent proliferation of the CTLLs (CTLLs) | activity in CTLL / IL-2 assay (in words) (CTLL cells) | IC50 (CTLL cells) | IC50 [2] | inhibition of cytotoxic T-cell generation, concentration relative to cyclosporin A (cytotoxic T-cell) | inhibition of mixed lymphocyte culture response, concentration relative to cyclosporin A (mixed lymphocyte culture) | binding to FKBP (binding protein (FKBP)) | inhibition of IL-2 production, concentration relative to cyclosporin A (IL-2 production) | inhibition of PPIase activity (PPIase) |
| --- | --- | --- | --- | --- | --- | --- | --- | --- | --- | --- | --- | --- |
| CO[C@H]1C[C@@H]2CC[C@@H](C)[C@@](O)(O2)C(=O)C(=O)N2CCCC[C@H]2C(=O)O[C@H]([C@H](C)C[C@@H]2CC[C@@H](O)[C@H](OC)C2)CC(=O)[C@H](C)/C=C(\C)[C@@H](O)[C@@H](OC)C(=O)[C@H](C)C[C@H](C)/C=C/C=C/C=C/1C [Rapamycin] | < 1 µg/mL | inactive | Inactive | inhibits IL-2 dependent proliferation of the CTLLs | active | ~0.01 µg/mL | < 1 µg/mL | – | – | – | – | – |
| C=CC[C@@H]1/C=C(\C)C[C@H](C)C[C@H](OC)[C@H]2O[C@@](O)(C(=O)C(=O)N3CCCC[C@H]3C(=O)O[C@H](/C(C)=C/[C@@H]3CC[C@@H](O)[C@H](OC)C3)[C@H](C)[C@@H](O)CC1=O)[C@H](C)C[C@@H]2OC [FK-506] | < 1 µg/mL | inhibit this cell death | Blocks | do not | – | > 1 µg/mL | < 1 µg/mL | 100 times lower concentration than cyclosporin A | 100 times lower concentration than cyclosporin A | binds to a binding protein (FKBP) distinct from cyclophilin | 100 times lower concentration than cyclosporin A | inhibits PPIase activity |
